# Laboratory results reported in US20100093714A1, “AMIDES OF THIENO[2,3-d]PYRIMIDINE AND THEIR USE AS ADENOSINE A2a RECEPTOR ANTAGONISTS” (priority 2008, published 2010).
# Structures can show the parent of a compound that is named as a salt.
# Tests used:
# [1] = biological target: T1, human adenosine A2a receptor (Homo sapiens, UniProt P29274); experiment: Adenosine A2a Receptor Functional Assay (A2AGAL2); format: cell-based; conditions: CHO-K1 cells, cAMP inducible beta-galactosidase reporter, 15 nM NECA agonist challenge
# T1 construct: expressed in transfected cells; host or cells: CHO-K1
# T1 sequence (P29274 whole entry): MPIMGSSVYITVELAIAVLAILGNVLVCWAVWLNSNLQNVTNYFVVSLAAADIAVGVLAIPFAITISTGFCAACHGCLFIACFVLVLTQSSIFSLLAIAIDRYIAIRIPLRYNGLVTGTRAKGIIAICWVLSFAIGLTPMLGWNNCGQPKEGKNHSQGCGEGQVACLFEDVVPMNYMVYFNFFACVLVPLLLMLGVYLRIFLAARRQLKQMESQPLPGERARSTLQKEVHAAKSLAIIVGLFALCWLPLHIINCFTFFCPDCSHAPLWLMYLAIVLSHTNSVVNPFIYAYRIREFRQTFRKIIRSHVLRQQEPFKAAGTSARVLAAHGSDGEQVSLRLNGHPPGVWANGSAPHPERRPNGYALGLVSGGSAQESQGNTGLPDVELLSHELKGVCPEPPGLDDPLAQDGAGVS
# Protocol: (§1) To initiate the functional assay, cryopreserved CHO-K1 cells overexpressing the human adenosine A2a receptor and containing a cAMP inducible beta-galactosidase reporter gene were thawed, centrifuged, DMSO containing media removed, and then seeded with fresh culture media into clear 384-well tissue culture treated plates (BD #353961) at a concentration of 10K cells/well. Prior to assay, these plates were cultured for two days at 37° C., 5% CO2, 90% Rh. On the day of the functional assay, culture media was removed and replaced with 45 uL assay medium (Hams/F-12 Modified (Mediatech #10-080CV) supplemented w/0.1% BSA). Test compounds were diluted and 11 point curves created at a 1000× concentration in 100% DMSO. Immediately after addition of assay media to the cell plates, 50 nL of the appropriate test compound antagonist or agonist control curves were added to cell plates using a Cartesian Hummingbird. Compound curves were allowed to incubate at room temperature on cell plates for approximately 15 minutes before addition of a 15 nM NECA (Sigma E2387) agonist challenge (5 uL volume). A control curve of NECA, a DMSO/Media control, and a single dose of Forskolin (Sigma F3917) were also included on each plate. After additions, cell plates were allowed to incubate at 37° C., 5% CO2, 90% Rh for 5.5-6 hours. After incubation, media was removed, and cell plates were washed 1×50 uL with DPBS w/o Ca & Mg (Mediatech 21-031-CV). Into dry wells, 20 uL of 1× Reporter Lysis Buffer (Promega E3971 (diluted in dH2O from 5× stock)) was added to each well and plates frozen at −20° C. overnight. For β-galactosidase enzyme calorimetric assay, plates were thawed out at room temperature and 20 μL 2× assay buffer (Promega) was added to each well. Color was allowed to develop at 37° C., 5% CO2, 90% Rh for 1-1.5 h or until reasonable signal appeared. The calorimetric reaction was stopped with the addition of 60 μL/well 1M sodium carbonate. Plates were counted at 405 nm on a SpectraMax Microplate Reader (Molecular Devices). Data was analyzed in Microsoft Excel and IC/EC50 curves were fit using a standardized macro.
# [2] = biological target: T2, human adenosine A1 receptor (Homo sapiens, UniProt P30542); experiment: Adenosine A1 Receptor Functional Assay (A1GAL2); format: cell-based; conditions: CHO-K1 cells, cAMP inducible beta-galactosidase reporter, 4nM r-PIA/1 uM Forskolin agonist challenge
# T2 construct: expressed in transfected cells; host or cells: CHO-K1
# T2 sequence (P30542 1-326): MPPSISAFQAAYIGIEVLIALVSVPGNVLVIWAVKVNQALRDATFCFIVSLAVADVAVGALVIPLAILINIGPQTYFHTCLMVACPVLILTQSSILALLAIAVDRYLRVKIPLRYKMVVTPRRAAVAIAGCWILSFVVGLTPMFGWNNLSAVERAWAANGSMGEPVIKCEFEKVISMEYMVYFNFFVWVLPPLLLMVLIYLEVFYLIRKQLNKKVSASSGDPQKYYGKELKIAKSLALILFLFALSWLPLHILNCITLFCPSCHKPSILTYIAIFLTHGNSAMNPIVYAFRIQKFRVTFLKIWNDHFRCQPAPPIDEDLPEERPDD
# Protocol: as §1, with “A1” for “A2a”, “4nM r-PIA” for “15 nM NECA”, “P4532)/1 uM Forskolin (Sigma F3917)” for “E2387)”, “r-PIA in 1 uM Forskolin,” for “NECA,”, “Forskolin” for “Forskolin (Sigma F3917)”
Ki [1] [nM],Ki [2] [nM],Compound
184,598,"C[C@@H]1CN(C(=O)c2cc3c(N)nc(-c4cccc(C#N)c4)nc3s2)C[C@H](C)O1 [Example 1, 3-[4-Amino-6-(2,6-dimethyl-morpholine-4-carbonyl)-thieno[2,3-d]pyrimidin-2-yl]-benzonitrile]"
80.9,1430,"Nc1nc(-c2nccs2)nc2sc(C(=O)N3CCOCC3)cc12 [Example 4, (4-Amino-2-thiazol-2-yl-thieno[2,3-d]pyrimidin-6-yl)-morpholin-4-yl-methanone]"
361,> 10000,"Nc1nc(-c2ncco2)nc2sc(C(=O)N3CCOCC3)cc12 [Example 6, (4-Amino-2-oxazol-2-yl-thieno[2,3-d]pyrimidin-6-yl)-morpholin-4-yl-methanone]"
193,~927,"Cc1csc(-c2nc(N)c3cc(C(=O)NCCN4CCS(=O)(=O)CC4)sc3n2)n1 [Example 7, 4-Amino-2-(4-methyl-thiazol-2-yl)-thieno[2,3-d]pyrimidine-6-carboxylic acid[2-(1,1-dioxo-1-thiomorpholin-4-yl)-ethyl]-amide]"
222,> 1070,"Cc1csc(-c2nc(N)c3cc(C(=O)N4CCN(c5ccncc5)CC4)sc3n2)n1 [Example 8, [4-Amino-2-(4-methyl-thiazol-2-yl)-thieno[2,3-d]pyrimidin-6-yl]-(4-pyridin-4-yl-piperazin-1-yl)-methanone]"
94.2,603,"CC(C)(C)N1CCN(C(=O)c2cc3c(N)nc(-c4cccc(C#N)c4)nc3s2)CC1 [Example 9, 3-[4-Amino-6-(4-tert-butyl-piperazine-1-carbonyl)-thieno[2,3-d]pyrimidin-2-yl]-benzonitrile]"
34.7,52.6,"N#Cc1cccc(-c2nc(N)c3cc(C(=O)NCCN4CCOCC4)sc3n2)c1 [Example 10, 4-Amino-2-(3-cyano-phenyl)-thieno[2,3-d]pyrimidine-6-carboxylic acid(2-morpholin-4-yl-ethyl)-amide]"
17.9,530,"Cc1csc(-c2nc(N)c3cc(C(=O)NCCc4cccnc4)sc3n2)n1 [Example 11, 4-Amino-2-(4-methyl-thiazol-2-yl)-thieno[2,3-d]pyrimidine-6-carboxylic acid(2-pyridin-3-yl-ethyl)-amide]"
21.9,443,"Cc1csc(-c2nc(N)c3cc(C(=O)NC4CCOCC4)sc3n2)n1 [Example 12, 4-Amino-2-(4-methyl-thiazol-2-yl)-thieno[2,3-d]pyrimidine-6-carboxylic acid(tetrahydro-pyran-4-yl)-amide]"
99.2,> 1000,"Nc1nc(-c2ncco2)nc2sc(C(=O)NC3CCOCC3)cc12 [Example 13, 4-Amino-2-oxazol-2-yl-thieno[2,3-d]pyrimidine-6-carboxylic acid(tetrahydro-pyran-4-yl)-amide]"
1550,> 610,"Nc1nc(-c2ccc(C3CC3)o2)nc2sc(C(=O)NCc3cccnc3)cc12 [Example 14, 4-Amino-2-(5-cyclopropyl-furan-2-yl)-thieno[2,3-d]pyrimidine-6-carboxylic acid(pyridin-3-ylmethyl)-amide]"
29,113,"N#Cc1cccc(-c2nc(N)c3cc(C(=O)NCc4ccccn4)sc3n2)c1 [Example 15, 4-Amino-2-(3-cyano-phenyl)-thieno[2,3-d]pyrimidine-6-carboxylic acid(pyridin-2-ylmethyl)-amide]"
115,467,"N#Cc1cccc(-c2nc(N)c3cc(C(=O)NCCc4cccnc4)sc3n2)c1 [Example 16, 4-Amino-2-(3-cyano-phenyl)-thieno[2,3-d]pyrimidine-6-carboxylic acid(2-pyridin-3-yl-ethyl)-amide]"
528,> 923,"Cc1cc(-c2nc(N)c3cc(C(=O)N4CCOCC4)sc3n2)no1 [Example 17, [4-Amino-2-(5-methyl-isoxazol-3-yl)-thieno[2,3-d]pyrimidin-6-yl]-morpholin-4-yl-methanone]"
195,> 948,"CCN1CCN(C(=O)c2cc3c(N)nc(-c4nc(C)cs4)nc3s2)CC1 [Example 18, [4-Amino-2-(4-methyl-thiazol-2-yl)-thieno[2,3-d]pyrimidin-6-yl]-(4-ethyl-piperazin-1-yl)-methanone hydrochloride]"
14.2,21.9,"N#Cc1cccc(-c2nc(N)c3cc(C(=O)NCc4cccnc4)sc3n2)c1 [Example 19, 4-Amino-2-(3-cyano-phenyl)-thieno[2,3-d]pyrimidine-6-carboxylic acid(pyridin-3-ylmethyl)-amide]"
109,508,"Cc1csc(-c2nc(N)c3cc(C(=O)NCc4ccc(Cl)nc4)sc3n2)n1 [Example 20, 4-Amino-2-(4-methyl-thiazol-2-yl)-thieno[2,3-d]pyrimidine-6-carboxylic acid(6-chloro-pyridin-3-yl-methyl)-amide hydrochloride]"
310,26.9,"Cc1cc(-c2nc(N)c3cc(C(=O)NCc4cccnc4)sc3n2)no1 [Example 21, 4-Amino-2-(5-methyl-isoxazol-3-yl)-thieno[2,3-d]pyrimidine-6-carboxylic acid(pyridin-3-ylmethyl)-amide]"
367,> 1310,"Cc1csc(-c2nc(N)c3cc(C(=O)N4CCN(C(C)(C)C)CC4)sc3n2)n1 [Example 23, [4-Amino-2-(4-methyl-thiazol-2-yl)-thieno[2,3-d]pyrimidin-6-yl]-(4-tert-butyl-piperazin-1-yl)-methanone]"
137,422,"Nc1nc(-c2ncco2)nc2sc(C(=O)NCc3ccccn3)cc12 [Example 24, 4-Amino-2-oxazol-2-yl-thieno[2,3-d]pyrimidine-6-carboxylic acid(pyridin-2-ylmethyl)-amide]"
287,> 1310,"Nc1nc(-c2ncco2)nc2sc(C(=O)NCCN3CCOCC3)cc12 [Example 25, 4-Amino-2-oxazol-2-yl-thieno[2,3-d]pyrimidine-6-carboxylic acid(2-morpholin-4-yl-ethyl)-amide]"
92.9,> 1310,"Nc1nc(-c2nc(C(F)(F)F)cs2)nc2sc(C(=O)N3CCOCC3)cc12 [Example 26, [4-Amino-2-(4-trifluoromethyl-thiazol-2-yl)-thieno[2,3-d]pyrimidin-6-yl]-morpholin-4-yl-methanone]"
40.3,245,"Cc1csc(-c2nc(N)c3cc(C(=O)NCc4cccnc4)sc3n2)n1 [Example 27, 4-Amino-2-(4-methyl-thiazol-2-yl)-thieno[2,3-d]pyrimidine-6-carboxylic acid(pyridin-3-ylmethyl)-amide]"
